The text below walks through data of patent publication US20070026478A1, “Hemiasterlin affinity probes and their uses” (WYETH, priority 2002, published 2007).

Structures can show the parent of a compound that is named as a salt. Where two headings read alike, the source gives them in different places. Marks after values point to notes of the source that are not given here.

For data set [1], the target named is T1, tubulin in whole KB-3-1 cells (Homo sapiens, UniProt P07437+P68363).
T1 construct: a cytosolic preparation of KB-3-1 cell lysates (50 μg) or KB-3-1 cells (40,000 cells) were used in the place of purified tubulin; endogenous in cells; host or cells: KB-3-1 cells (cytosolic supernatant at 100,000 x g, or whole cells)
As to the kind of experiment: Probe 1 photolabeling in whole KB-3-1 cells. As to conditions: 250 μM pre-incubation at 37° C. for 15 minutes. Type of data set: cell-based. How it is done:
Alternatively, a cytosolic preparation of KB-3-1 cell lysates (50 μg) or KB-3-1 cells (40,000 cells) were used in the place of purified tubulin above. The supernatant of mechanically disrupted cells centrifuged at 100,000×g was used as a cytosolic preparation. K-3-1 cells were prepared by growing KB-3-1 cells in a 96-well plate and rinsing them with serum free medium. For experiments with whole cells, 250 μM HTI-286 was used as the competitor molecule during pre-incubation at 37° C. for 15 minutes.
Samples were irradiated at 360 nm with a Mineralight lamp (UVP, Upland, Calif.) for 30 minutes (for Probe 1), 2 hours (for whole cells with Probe 1), or 2 hours (for Probe 2) at 4° C., unless otherwise noted. Radiation of the benzophenone moiety at this wavelength effectively activates the photoprobe with minimal destruction of protein compared to the shorter wavelengths typically used for azido-containing photoprobes (see, Williams et al., Methods Enzymol. 1986, 126:667-682). If whole cells were used, Laemmli sample buffer was then added to lyse the cells.

In data set [2] the target is T2, bovine brain tubulin (Bos taurus, UniProt P81947+Q6B856).
T2 construct: MAP-rich bovine brain tubulin (99% purity), Hela cell tubulin (90% purity); purchased Cytoskeleton (Denver, Colo.); host or cells: bovine brain
Put plainly: Reversible binding affinity assay (tubulin fluorescence). How it is done: The affinity of both HTI-286 and of non-radiolabled Probe 1 and Probe 2, to bovine brain tubulin was determined by previously published methods (Krishnamurthy et al., Biochem., submitted). Briefly, 5 mg/mL […] tubulin prepared in PEM buffer was pre-incubated with buffer or varying concentrations of test agents in individual quartz cuvettes. The intrinsic tryptophan fluorescence of tubulin (excitation at 560 nm and maximal emission at 580 nm) was measured after pre-incubation for 90 minutes. The change in fluorescence intensity at 580 nm in the presence of compound was fitted to a quadratic equation to obtain apparent dissociation constants (KD) of the test agents.

The target in data set [3] is T3, tubulin (Bos taurus, UniProt P81947+Q6B856).
T3 construct: MAP-rich bovine brain tubulin (99% purity), Hela cell tubulin (90% purity); purchased Cytoskeleton (Denver, Colo.); host or cells: bovine brain
As to the kind of experiment: Competition of [3H]-Probe 2 photolabeling of tubulin. It counts as binding, bovine. Conditions: 100 μM competitor, 2.5 μM tubulin, 0.25 μM [3H]-Probe 2, room temperature. The method, then:
(§1) Alternatively, a cytosolic preparation of KB-3-1 cell lysates (50 μg) or KB-3-1 cells (40,000 cells) were used in the place of purified tubulin above. The supernatant of mechanically disrupted cells centrifuged at 100,000×g was used as a cytosolic preparation. K-3-1 cells were prepared by growing KB-3-1 cells in a 96-well plate and rinsing them with serum free medium.
Competition binding experiments were performed as described in Section 7.1.5. […] Samples were then irradiated for 2 hours at 4° C. and evaluated by SDS-PAGE and fluorography.

Data set [4] concerns the target T3, tubulin. Put plainly: Separation of polymerized and free tubulin by centrifugation. It counts as biochemical, bovine. Conditions: 50 μM drug, centrifugation at 10,000 g and 100,000 g. The method, then:
Tubulin (5 μg) was incubated with 50 μM drug at room temperature for 25 minutes and then centrifuged at either 10,000 g for 15 minutes in a tabletop microfuge or at 100,000 g for 15 minutes in an airfuge. The supernatant was carefully removed to a fresh tube to obtain free tubulin and the pellet was solubilized in SDS-PAGE sample buffer.

A further data set addresses T4, α-tubulin (Bos taurus, UniProt P81947+Q6B856).
T4 construct: MAP-rich bovine brain tubulin (99% purity), Hela cell tubulin (90% purity); purchased Cytoskeleton (Denver, Colo.); host or cells: bovine brain
Put plainly: Subtilisin digestion of tubulin after incubation with various compounds. It counts as biochemical, bovine. Conditions: 50 μM drug, subtilisin up to 60 min at room temperature. The method, then: Tubulin (5 μg) was incubated with 50 μM drug at room temperature for 25 minutes and then digested under native conditions with subtilisin (0.05 μg) for 0, 5, 10, 15, 30 and 60 min at room temperature. Enzymatic digestion was stopped with 1 mM PMSF and samples were resolved by SDS-PAGE under conditions that allowed separation of α- and β-tubulin subunits. Gels were then fixed and stained with Coomassie blue.

The subject of a further data set is KB cells. As to the kind of experiment: Cell proliferation assay in tissue culture (SRB). Type of data set: cell-based. Conditions: Homo sapiens, KB, 72 h. How it is done: Cell proliferation studies were performed according to procedures described by Loganzo et al. (Cancer Res. 2003, 63:1838-1845). Briefly, KB cells were plated in 96-well plates in 100 μL media at densities pre-determined to produce 60-90% confluence at the time of analysis. Compounds, which were serially diluted into media as 2× stocks, were added to cells in duplicate. After 72 hours of incubation, cell survival was assayed by the SRB assay as described (Rabindran et al., C. Cancer Res. 1998, 58:5850-5858). IC50 values (i.e. the concentration of drug needed to inhibit cell growth by 50%) were used to evaluate drug potency.

Another data set concerns the target P-glycoprotein (Homo sapiens, UniProt P08183). As to conditions: Loganzo et al., Cancer Res. 2003; cited from earlier work.
Data set [5] addresses T2, bovine brain tubulin. Put plainly: Competition of [3H]-Probe 1 photolabeling of tubulin. It counts as binding. As to conditions: for inhibition of incorporation of radiolabeled Probe 1 into α-tubulin: 1 mM competitor, 37° C. incubation; for Probe 1 photolabeling of tubulin (% of no-competitor control): control (no competitor) = 100. How it is done: as §1
If whole cells were used, Laemmli sample buffer was then added to lyse the cells.
Low grade SDS (Sigma, catalog No. L5750) was used in the running buffer, when needed, to allow separation of α and β-tubulin subunits. Gels were fixed, stained with Coomassie blue from BioRad (Hercules, Calif.) to ensure equal loading of protein, and sliced. […] Alternatively, gels were incubated with EN^3HANCE according to the manufacturer's instructions (Life Sciences Products, Inc.), washed, and dried prior to exposure of the gel to Biomax MX film from Kodak (Rochester, N.Y.) for fluorography.
After incubation for 30 minutes at 37° C., samples were irradiated with 360 nm UV light for 30 minutes and separated by SDS-PAGE. Gels were exposed to film using fluorographic techniques.
In particular, photolabeling experiments were performed as described in section 7.1.5 above, at both room temperature and at 37° C.

A further data set deals with T5, bovine MAP-rich tubulin (Bos taurus, UniProt P81947+Q6B856).
T5 construct: MAP-rich bovine brain tubulin (99% purity), Hela cell tubulin (90% purity); purchased Cytoskeleton (Denver, Colo.); host or cells: bovine brain
As to the kind of experiment: Tubulin polymerization assay in a cell-free system. Type of data set: biochemical. Conditions: 0.3 μM compound. How it is done:
In vitro tubulin polymerization assays were performed according to procedures that have been described elsewhere (Loganzo et al., Cancer Res. 2003, 63:1838-1845). Briefly, bovine MAP-rich tubulin (final concentration 1.5 mg/mL) was dissolved in cold PEM buffer containing 1 mM GTP (GPEM) and centrifuged at 12,000×g for 10 minutes at 4° C. The tubulin solution (100 μL/well) was added rapidly to wells of a low-volume, 96-well plate already containing duplicate aliquots (10 μL) of test compounds in GPEM. Final compound concentrations were 0.3 μM. Control wells contained the same final concentration of DMSO (0.3%). After initiation of the reaction, absorbance at 340 nm was measured every minute for 60 minutes at 24° C. using a SpectraMax Plus plate reader (Molecular Devices, Sunnyvale, Calif.). An increase in absorbance over time indicated an increase in turbidity resulting from tubulin polymerization.

`CN[C@H](C(=O)N[C@H](C(=O)N(C)[C@H](/C=C(\C)C(=O)O)C(C)C)C(C)(C)C)C(C)(C)c1ccccc1` [HTI-286, N,β,β-trimethyl-L-phenylalany-N^1[(1S,2E)-3-carboxy-1-isopropylbut-2-enyl]-N^1,3-dimethyl-L-valinamide trifluoroacetate]: the “competition of radiolabeled Probe 1 labeling in whole cells” value in data set [1] was “eliminates the specific labeling of the 50 kDa tubulin band”. The Kd on bovine brain tubulin [2] (Table 1, binding to bovine brain tubulin, read-out: KD) was 400 to 800 nM; on bovine brain tubulin [2] (rhodamine-labeled tubulin, 90 minutes pre-incubation, read-out: apparent binding constant (KD), fluorescence method), 600 nM. Further, at tubulin [3], the “inhibition of Probe 2 labeling of tubulin” value came to 45%. For the same molecule, the “protein recovered in pellet fractions (tubulin aggregation)” value on tubulin [4] is “no significant protein was recovered”. Besides, at α-tubulin, the “protection of α-tubulin from subtilisin cleavage” value is on record as “unable to cleave α-tubulin even after 60 minutes”. Moreover, the half-maximal inhibitory concentration (IC50) in the data set on KB cells was 0.96 nM; at bovine brain tubulin [5] (room temperature, 2.5 μM tubulin, 0.25 μM radiolabeled Probe 1, read-out: IC50 for inhibition of Probe 1 photolabeling of tubulin) it was 7000 nM. Also, the “interaction with P-glycoprotein” value at P-glycoprotein was “weak interaction”. The “inhibition of incorporation of radiolabeled Probe 1 into α-tubulin” value is recorded as “completely inhibits” on bovine brain tubulin [5] (0.25 μM radiolabeled Probe 1, 2.5 μM tubulin) and “more than 50%” at bovine brain tubulin [5] (2.5 μM radiolabeled Probe 1, 2.5 μM tubulin). In addition, the “reduction of Probe 1 photolabeling of tubulin” value on bovine brain tubulin [5] (37° C.) is “about 50%”; on bovine brain tubulin [5] (room temperature, 400-fold molar excess (100 μM) competitor, 2.5 μM tubulin, 0.25 μM radiolabeled Probe 1) it was “approximately 72%”. Further, the “Probe 1 photolabeling of tubulin (% of no-competitor control)” value is 47^† % at bovine brain tubulin [5] (37° C., 100 μM competitor) and 27 ± 4% on bovine brain tubulin [5] (Room Temp., 2.5 μM tubulin, 0.25 μM radiolabeled Probe 1, 100 μM competitor). The inhibition at 0.3 µM against bovine MAP-rich tubulin turned out to be 88%. The “tubulin polymerization (% inhibition)” value on bovine MAP-rich tubulin (0.3 µM) is on record as 87.5 ± 12.2 (n = 49) %.

As usually defined, the IC50 is the midpoint of a concentration-inhibition curve. The term inhibition denotes the change of the read-out against control, counted positive when it falls. A low value points to little suppression.
